In US9724358B2, “Minocycline compounds and methods of use thereof” (Paratek Pharmaceuticals, Inc., priority 2008, dated 2017):
Marks after values point to notes of the source that are not given here.

Assays:
MSSA = assay: Phase 2 CSSSI study, clinical outcome by organism: MSSA; assay type: in vivo, Staphylococcus aureus
Description: (§1) A randomized (1:1), controlled, evaluator-blinded Phase 2 study comparing 9-[(2,2-dimethyl-propyl amino)-methyl-minocycline (compound 1) and linezolid (Zyvox™) for the treatment of complicated skin and skin structure infections (CSSSI) was conducted. Patients with CSSSI who required initial intravenous (IV) therapy and met inclusion and exclusion criteria were enrolled at 11 centers in the US and were randomized to receive either compound 1 (100 mg Q24 h IV with 200 mg Q24 h oral step-down) or linezolid (600 mg Q12 h IV with 600 mg Q12 h oral step-down).
(§2) An infecting pathogen was defined as an isolate derived from the last positive culture taken from the site of infection under study prior to and including day 1.

MRSA = assay: Phase 2 CSSSI study, clinical outcome by organism: MRSA; assay type: in vivo, Staphylococcus aureus
Description: as §1, §2

B-Strep = assay: Phase 2 CSSSI study, clinical outcome by organism: B-Strep; assay type: in vivo, B-streptococci
Description: as §1, §2

Viridans Strep = assay: Phase 2 CSSSI study, clinical outcome by organism: Viridans Strep; assay type: in vivo, Viridans Streptococci; settings: ME population
Description: as §1, §2

Enterococcus = assay: Phase 2 CSSSI study, clinical outcome by organism: Enterococcus; assay type: in vivo; settings: ME population
Description: as §1, §2

G+ anaerobes = assay: Phase 2 CSSSI study, clinical outcome by organism: G+ anaerobes; assay type: in vivo, gram-positive anaerobes; settings: ME population
Description: as §1, §2

Mixed GPC/GNR = assay: Phase 2 CSSSI study, clinical outcome by organism: Mixed GPC/GNR; assay type: in vivo; settings: ME population
Description: as §1, §2

infecting pathogen = assay: Phase 2 CSSSI study, microbiology outcome; assay type: in vivo, human; settings: ME population
Description: as §2
A persisting pathogen at the site of infection under study was defined as an isolate that was the same genus and species as an infecting pathogen; and was cultured at the Test-of-Cure evaluation from the site of infection under study.
A superinfecting pathogen at the site of infection under study is defined as a pathogen meeting all of the following criteria: represented a genus and species not isolated during the Enrollment evaluation, was cultured at any time from the day 3 of treatment to the test of cure evaluation, inclusive; was cultured from a patient who had at least one infecting pathogen; and was cultured from a patient who represents a “clinical failure.”
Microbiological response to treatment was determined for each infecting pathogen using the following classification: documented eradication, presumed eradication, documented persistence, presumed persistence, or unknown.
Microbiological response to treatment was determined for each subject using the following classification:
Microbiologic Success—all infecting pathogens isolated at baseline were eradicated or presumed eradicated at the test-of-cure evaluation and no superinfecting pathogen was isolated from the site of infection under study.
Microbiological Failure—persistence or presumed persistence of one or more infecting pathogens or isolation of a superinfecting pathogen from the site of infection under study.

[1] = Phase 2 CSSSI study, safety and adverse events by patient; assay type: in vivo, human
Description: as §1
(§3) At each of the four structured evaluations, the blinded evaluator assessed the subject, with particular attention to scoring the findings at the primary site of infection and obtaining cultures. Clinical and microbiologic outcomes were determined using these assessments. Primary evaluation criteria was safety and tolerability compared with linezolid. Secondary evaluation criteria was efficacy of compound 1 compared to linezolid, as well as pharmacokinetics of compound 1.
In addition, the patients in the study were monitored for adverse events (AE). An adverse event is any untoward medical occurrence temporally associated with the use of a medical product in a subject, whether or not the event is considered causally related to the medical product.

[2] = Phase 2 CSSSI study, safety: ALT level; assay type: in vivo, human
Description: as §1, §3

[3] = as determined in the trials of the Exemplification
[4] = clinical failure, no pathogen at TOC
[5] = clinical success, enrollment pathogen isolated at TOC
[6] = clinical success, no pathogen at TOC
[7] = probably or possibly drug-related by blinded evaluator
[8] = EOT, ALT abnormal at enrollment
[9] = EOT, ALT within normal limits at enrollment
[10] = TOC, ALT abnormal at enrollment
[11] = TOC, ALT within normal limits at enrollment
[12] = max on treatment, ALT abnormal at enrollment
[13] = max on treatment, ALT within normal limits at enrollment

Compound: CC(=O)NCC1CN(c2ccc(N3CCOCC3)c(F)c2)C(=O)O1 (stereo not shown) [Linezolid, N-[[3-(3-fluoro-4-morpholinophenyl)-2-oxooxazolidin-5-yl]methyl]acetamide, reference compound]
- Clinical outcome Failure (number) (MSSA; ME population, MSSA): 2
- Clinical outcome Success (number) (MSSA; ME population, MSSA): 21
- clinical success rate against MSSA (MSSA; [3]): 91%
- Clinical outcome Failure (number) (MRSA; ME population, MRSA): 2
- Clinical outcome Success (number) (MRSA; ME population, MRSA): 30
- clinical success rate against MRSA (MRSA; [3]): 93%
- Clinical outcome Failure (number) (B-Strep; ME population, B-Strep): 2
- Clinical outcome Success (number) (B-Strep; ME population, B-Strep): 0
- clinical success rate against B. streptococci (B-Strep; [3]): 0%
- Clinical outcome Failure (number) (Viridans Strep): 0
- Clinical outcome Success (number) (Viridans Strep): 6
- Clinical outcome Failure (number) (Enterococcus): 0
- Clinical outcome Success (number) (Enterococcus): 3
- Clinical outcome Failure (number) (G+ anaerobes): 0
- Clinical outcome Success (number) (G+ anaerobes): 3
- Clinical outcome Failure (number) (Mixed GPC/GNR): 0
- Clinical outcome Success (number) (Mixed GPC/GNR): 10
- Presumed Persistence (% of subjects) (infecting pathogen; [4]): 6.3%
- Presumed Persistence (number of subjects) (infecting pathogen; [4]): 4
- Persistence (% of subjects) (infecting pathogen; [5]): 1.6%
- Persistence (number of subjects) (infecting pathogen; [5]): 1
- Presumed Eradication (% of subjects) (infecting pathogen; [6]): 92.1%
- Presumed Eradication (number of subjects) (infecting pathogen; [6]): 58
- Adverse events by patient, Cardiac, Drug Related [1, 7]: 3
- Adverse events by patient, Ear, Drug Related [1, 7]: 1
- Adverse events by patient, Eye, Drug Related [1, 7]: 1
- Adverse events by patient, GI, Drug Related [1, 7]: 13^b
- Adverse events by patient, General, Drug Related [1, 7]: 4
- Adverse events by patient, Heme, Drug Related [1, 7]: 0
- Adverse events by patient, Infection, Drug Related [1, 7]: 1
- Adverse events by patient, Injury, Drug Related [1, 7]: 1
- Adverse events by patient, Investigations, Drug Related [1, 7]: 8
- Adverse events by patient, Metabolism, Drug Related [1, 7]: 2
- Adverse events by patient, Musculoskeletal, Drug Related [1, 7]: 0
- Adverse events by patient, Neurologic, Drug Related [1, 7]: 7
- Adverse events by patient, Psych, Drug Related [1, 7]: 3
- Adverse events by patient, Renal, Drug Related [1, 7]: 0
- Adverse events by patient, Reproductive, Drug Related [1, 7]: 0
- Adverse events by patient, Respiratory, Drug Related [1, 7]: 0
- Adverse events by patient, Skin, Drug Related [1, 7]: 6^c
- Adverse events by patient, Vascular, Drug Related [1, 7]: 1
- Adverse events by patient, GI, Drug Related ([1]; probably or possibly drug-related by blinded evaluator, listed as linezolid): 13
- Adverse events by patient, Cardiac, Total ([1]; safety population): 4
- Adverse events by patient, Ear, Total ([1]; safety population): 2
- Adverse events by patient, Eye, Total ([1]; safety population): 1
- Adverse events by patient, GI, Total ([1]; safety population): 21
- Adverse events by patient, General, Total ([1]; safety population): 8
- Adverse events by patient, Heme, Total ([1]; safety population): 2
- Adverse events by patient, Infection, Total ([1]; safety population): 9
- Adverse events by patient, Injury, Total ([1]; safety population): 1
- Adverse events by patient, Investigations, Total ([1]; safety population): 11
- Adverse events by patient, Metabolism, Total ([1]; safety population): 7
- Adverse events by patient, Musculoskeletal, Total ([1]; safety population): 2
- Adverse events by patient, Neurologic, Total ([1]; safety population): 15
- Adverse events by patient, Psych, Total ([1]; safety population): 6
- Adverse events by patient, Renal, Total ([1]; safety population): 2
- Adverse events by patient, Reproductive, Total ([1]; safety population): 1
- Adverse events by patient, Respiratory, Total ([1]; safety population): 2
- Adverse events by patient, Skin, Total ([1]; safety population): 10
- Adverse events by patient, Vascular, Total ([1]; safety population): 1
- Patients with no adverse event (None), % ([1]; safety population): 49.1%
- Patients with no adverse event (None), number ([1]; safety population): 53
- Total Patients with 1 or more AE, % ([1]; safety population): 50.9%
- Total Patients with 1 or more AE, number ([1]; safety population): 55
- ALT Increase: >2x ULN and 2x baseline (number) [2, 8]: 0
- ALT NS: >ULN and <2x baseline (%) [2, 8]: (63.6%)
- ALT NS: >ULN and <2x baseline (number) [2, 8]: 7
- ALT Within normal limits (%) [2, 8]: (36.4%)
- ALT Within normal limits (number) [2, 8]: 4
- ALT 1x-2x (%) [2, 9]: (10.0%)
- ALT 1x-2x (number) [2, 9]: 9
- ALT 2x-3x (%) [2, 9]: (1.1%)
- ALT 2x-3x (number) [2, 9]: 1
- ALT >3x (%) [2, 9]: (1.1%)
- ALT >3x (number) [2, 9]: 1
- ALT Within normal limits (%) [2, 9]: (87.8%)
- ALT Within normal limits (number) [2, 9]: 79
- ALT Increase: >2x ULN and 2x baseline (%) [2, 10]: (8.3%)
- ALT Increase: >2x ULN and 2x baseline (number) [2, 10]: 1
- ALT NS: >ULN and <2x baseline (%) [2, 10]: (50.0%)
- ALT NS: >ULN and <2x baseline (number) [2, 10]: 6
- ALT Within normal limits (%) [2, 10]: (41.7%)
- ALT Within normal limits (number) [2, 10]: 5
- ALT 1x-2x (%) [2, 11]: (5.1%)
- ALT 1x-2x (number) [2, 11]: 4
- ALT 2x-3x (number) [2, 11]: 0
- ALT >3x (number) [2, 11]: 0
- ALT Within normal limits (%) [2, 11]: (94.9%)
- ALT Within normal limits (number) [2, 11]: 75
- ALT Increase: >2x ULN and 2x baseline (%) [2, 12]: (16.7%)
- ALT Increase: >2x ULN and 2x baseline (number) [2, 12]: 2
- ALT NS: >ULN and <2x baseline (%) [2, 12]: (66.7%)
- ALT NS: >ULN and <2x baseline (number) [2, 12]: 8
- ALT Within normal limits (%) [2, 12]: (16.7%)
- ALT Within normal limits (number) [2, 12]: 2
- ALT 1x-2x (%) [2, 13]: (14.7%)
- ALT 1x-2x (number) [2, 13]: 14
- ALT 2x-3x (%) [2, 13]: (5.3%)
- ALT 2x-3x (number) [2, 13]: 5
- ALT >3x (%) [2, 13]: (1.1%)
- ALT >3x (number) [2, 13]: 1
- ALT Within normal limits (%) [2, 13]: (78.9%)
- ALT Within normal limits (number) [2, 13]: 75
